Data taken from US4321265A, “7α-Methoxycephalosporins” (Toyama Chemical Co., Ltd., priority 1977, dated 1982).
In brackets after ≈: the same amount, converted by molar mass.

Columns and labels:
Ser. marcescens W-8 = experiment: Minimum inhibitory concentration (MIC), Heart Infusion agar; assay type: cell-based; conditions: Serratia marcescens, W8; Ser. marcescens W-8; 10^6 cells/ml; 20 hours, 37° C.; read-out: minimum inhibitory concentration (MIC)
Protocol: (§1) Antibacterial activities of the representative compounds (Ib) of the 7α-methoxycephalosporins according to this invention are shown in Table 1. [drawing 20]
(§2) The figures given in Table 1 represent the minimum inhibitory concentration (MIC in mcg/ml) of each compound, which was determined according to the method described in "Chemotherapy (Society of Chemotherapy, Japan), Vol. 16, 98-99 (1968)": A culture obtained by cultivating the test bacterium in a Heart Infusion broth (Eiken Kagaku Co.) was inoculated into a Heart Infusion agar medium (Eiken Kagaku Co.). After 20 hours of the incubation at 37° C., the growth of the bacterium was inspected to determine the minimum inhibitory concentration (MIC in mcg/ml). The inoculation rate of the bacterium was 10^4 cells/plate (10^6 cells/ml).
(§3) (1) Minimum inhibitory concentration (MIC in mcg/ml).

K. pneumoniae Y-50 = experiment: as above; assay type: cell-based; conditions: Klebsiella pneumoniae, Y50; K. pneumoniae Y-50; 10^6 cells/ml; 20 hours, 37° C.; read-out: minimum inhibitory concentration (MIC)
Protocol: as §1, §2, §3

[1] = tested on: Acinetobacter caloaceticus A-6; experiment: as above; assay type: cell-based; conditions: A6; Acinetobacter caloaceticus A-6; 10^6 cells/ml; 20 hours, 37° C.; read-out: minimum inhibitory concentration (MIC)
Protocol: as §1, §2, §3

Ps. aeruginosa IFO-3445 = experiment: as above; assay type: cell-based; conditions: Pseudomonas aeruginosa, IFO3445; Ps. aeruginosa IFO-3445; 10^6 cells/ml; 20 hours, 37° C.; read-out: minimum inhibitory concentration (MIC)
Protocol: as §1, §2, §3

[2] = tested on: C. freundii GN-346 (Cephalosporinase-producing bacterium); experiment: as above; assay type: cell-based; conditions: Citrobacter freundii, GN346; C. freundii GN-346; 10^6 cells/ml; 20 hours, 37° C.; read-out: minimum inhibitory concentration (MIC)
Protocol: as §1, §2, §3

Ps. aeruginosa S-68 = experiment: as above; assay type: cell-based; conditions: Pseudomonas aeruginosa, S68; Ps. aeruginosa S-68; 10^6 cells/ml; 20 hours, 37° C.; read-out: minimum inhibitory concentration (MIC)
Protocol: as §1, §2, §3

Ent. cloacae IID977 = experiment: as above; assay type: cell-based; conditions: Enterobacter cloacae; Ent. cloacae IID977; 10^6 cells/ml; 20 hours, 37° C.; read-out: minimum inhibitory concentration (MIC)
Protocol: as §1, §2, §3

[3] = tested on: S. aureus F-19 (Penicillinase-producing bacterium); experiment: as above; assay type: cell-based; conditions: Staphylococcus aureus; S. aureus F-19; 10^6 cells/ml; 20 hours, 37° C.; read-out: minimum inhibitory concentration (MIC)
Protocol: as §1, §2, §3

Prot. vulgaris GN-76 = experiment: as above; assay type: cell-based; conditions: Proteus vulgaris, GN76; Prot. vulgaris GN-76; 10^6 cells/ml; 20 hours, 37° C.; read-out: minimum inhibitory concentration (MIC)
Protocol: as §1, §2, §3

E. coli NIHJ = experiment: as above; assay type: cell-based; conditions: Escherichia coli; E. coli NIHJ; 10^6 cells/ml; 20 hours, 37° C.; read-out: minimum inhibitory concentration (MIC)
Protocol: as §1, §2, §3

Citrobacter N-7 = experiment: as above; assay type: cell-based; conditions: N7; Citrobacter N-7; 10^6 cells/ml; 20 hours, 37° C.; read-out: minimum inhibitory concentration (MIC)
Protocol: as §1, §2, §3

Ser. marcescens IID620 = experiment: as above; assay type: cell-based; conditions: Serratia marcescens; Ser. marcescens IID620; 10^6 cells/ml; 20 hours, 37° C.; read-out: minimum inhibitory concentration (MIC)
Protocol: as §1, §2, §3

Klebsiella spp. Y-72 = experiment: as above; assay type: cell-based; conditions: SPP.Y72; Klebsiella spp. Y-72; 10^6 cells/ml; 20 hours, 37° C.; read-out: minimum inhibitory concentration (MIC)
Protocol: as §1, §2, §3

Ser. marcescens W-35 = experiment: as above; assay type: cell-based; conditions: Serratia marcescens, W35, 20 h, Ser. marcescens W-35; 10^6 cells/ml; 20 hours, 37° C. (Table 1); read-out: minimum inhibitory concentration (MIC)
Protocol: as §1
as §2, with “The inoculation rate of the bacterium was 10^4 cells/plate (10^6 cells/ml).” left out
as §3

[4] = target: T1, Cephalosporinase (E. coli GN-5482) (Escherichia coli, UniProt P00811); experiment: Stability to β-lactamase, iodometry (Perret); assay type: biochemical; conditions: E. coli GN-5482 cephalosporinase; CER = 100; 30° C., pH 7.0
T1 construct: native preparation, details not in excerpts
T1 sequence (P00811 20-377): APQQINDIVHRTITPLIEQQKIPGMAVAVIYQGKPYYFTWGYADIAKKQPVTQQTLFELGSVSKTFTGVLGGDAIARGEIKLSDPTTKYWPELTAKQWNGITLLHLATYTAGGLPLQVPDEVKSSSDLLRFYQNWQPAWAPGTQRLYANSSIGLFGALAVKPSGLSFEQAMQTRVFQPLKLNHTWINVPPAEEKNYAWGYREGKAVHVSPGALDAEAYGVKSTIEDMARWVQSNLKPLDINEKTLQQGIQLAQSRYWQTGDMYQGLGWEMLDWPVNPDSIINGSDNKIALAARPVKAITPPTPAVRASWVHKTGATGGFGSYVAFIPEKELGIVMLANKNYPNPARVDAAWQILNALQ
Protocol: (§4) The stability to β-lactamase was examined by iodometry at 30° C. by the method of Perret (Perret, C. J., "Iodometric assay of penicillinase", Nature, 174, 1012-1013 (1954)), except that a 0.1 M phosphate buffer solution (pH 7.0) was used in place of the 0.2 M phosphate buffer solution (pH 6.5). The stability of each compound was shown in Table 2 in terms of relative degree of hydrolysis, assuming the stability of Cephaloridin (CER) to cephalosporinase as 100 and the stability of Penicillin G (PCG) to penicillinase as 100.

[5] = tested on: Penicillinase (P. aeruginosa GN-3379); experiment: Stability to β-lactamase, iodometry (Perret); assay type: biochemical; conditions: P. aeruginosa GN-3379 penicillinase; PCG = 100; 30° C., pH 7.0
Protocol: as §4

[6] = tested on: Penicillinase (E. coli TK-3); experiment: Stability to β-lactamase, iodometry (Perret); assay type: biochemical; conditions: E. coli TK-3 penicillinase; PCG = 100; 30° C., pH 7.0
Protocol: as §4

[7] = target: T2, Cephalosporinase (S. marcescens W-8) (Serratia marcescens, UniProt P18539); experiment: Stability to β-lactamase, iodometry (Perret); assay type: biochemical; conditions: S. marcescens W-8 cephalosporinase; CER = 100; 30° C., pH 7.0
T2 construct: native preparation, details not in excerpts
T2 sequence (P18539 22-376): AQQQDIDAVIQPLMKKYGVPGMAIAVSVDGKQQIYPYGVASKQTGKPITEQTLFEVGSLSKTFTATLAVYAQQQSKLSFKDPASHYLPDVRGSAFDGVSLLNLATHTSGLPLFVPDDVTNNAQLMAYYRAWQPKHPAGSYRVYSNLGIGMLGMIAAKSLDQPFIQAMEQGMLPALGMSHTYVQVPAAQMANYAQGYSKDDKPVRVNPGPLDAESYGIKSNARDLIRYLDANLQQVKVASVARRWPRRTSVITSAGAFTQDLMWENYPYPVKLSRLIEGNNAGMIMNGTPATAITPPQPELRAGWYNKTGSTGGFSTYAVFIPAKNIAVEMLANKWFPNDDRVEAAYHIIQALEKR
Protocol: as §4

[8] = tested on: Penicillinase (K. pneumoniae Y-4); experiment: Stability to β-lactamase, iodometry (Perret); assay type: biochemical; conditions: K. pneumoniae Y-4 penicillinase; PCG = 100; 30° C., pH 7.0
Protocol: as §4

`CCN1CCN(C(=O)NC(C(=O)N[C@]2(OC)C(=O)N3C(C(=O)O)=C(CSc4nnnn4CC(=O)O)CS[C@@H]32)c2cccs2)C(=O)C1=O` (some centres unmarked) showed an MIC (Ser. marcescens W-8) of 50 µg/mL (≈ 70.4 µM), an MIC (K. pneumoniae Y-50) of 6.25 µg/mL (≈ 8.81 µM) and an MIC [1] of 25 µg/mL (≈ 35.2 µM). It also gave an MIC (Ps. aeruginosa IFO-3445) of 25 µg/mL (≈ 35.2 µM), an MIC [2] of 50 µg/mL (≈ 70.4 µM) and an MIC (Ps. aeruginosa S-68) of 50 µg/mL (≈ 70.4 µM). For the same compound, the MIC (Ent. cloacae IID977) was 25 µg/mL (≈ 35.2 µM), the MIC [3] was 6.25 µg/mL (≈ 8.81 µM) and the MIC (Prot. vulgaris GN-76) was 0.78 µg/mL (≈ 1.1 µM). For the same compound, the MIC (E. coli NIHJ) was ≤ 0.1 µg/mL, the MIC (Citrobacter N-7) was 1.56 µg/mL (≈ 2.2 µM) and the MIC (Ser. marcescens IID620) was 0.78 µg/mL (≈ 1.1 µM). It also gave an MIC (Klebsiella spp. Y-72) of 25 µg/mL (≈ 35.2 µM) and an MIC (Ser. marcescens W-35) of 100 µg/mL (≈ 141 µM).

Compound `CCN1CCN(C(=O)NC(C(=O)N[C@]2(OC)C(=O)N3C(C(=O)O)=C(CSc4nnnn4CCO)CS[C@@H]32)c2cccs2)C(=O)C1=O` (some centres unmarked) has an MIC (Ser. marcescens W-8) of 50 µg/mL (≈ 71.9 µM), an MIC (K. pneumoniae Y-50) of 0.39 µg/mL (≈ 0.561 µM) and an MIC [1] of 6.25 µg/mL (≈ 8.98 µM). It also gave an MIC (Ps. aeruginosa IFO-3445) of 12.5 µg/mL (≈ 18 µM), an MIC [2] of 12.5 µg/mL (≈ 18 µM) and an MIC (Ps. aeruginosa S-68) of 12.5 µg/mL (≈ 18 µM). It also gave an MIC (Ent. cloacae IID977) of 25 µg/mL (≈ 35.9 µM), an MIC [3] of 3.13 µg/mL (≈ 4.5 µM) and an MIC (Prot. vulgaris GN-76) of 0.39 µg/mL (≈ 0.561 µM). The MIC (E. coli NIHJ) was ≤ 0.1 µg/mL, the MIC (Citrobacter N-7) was 1.56 µg/mL (≈ 2.24 µM) and the MIC (Ser. marcescens IID620) was 0.2 µg/mL (≈ 0.287 µM). It also gave an MIC (Klebsiella spp. Y-72) of 1.56 µg/mL (≈ 2.24 µM) and an MIC (Ser. marcescens W-35) of 12.5 µg/mL (≈ 18 µM).

`CCN1CCN(C(=O)NC(C(=O)N[C@]2(OC)C(=O)N3C(C(=O)O)=C(CSc4nnnn4C)CS[C@@H]32)C2=CCC=CC2)C(=O)C1=O` (some centres unmarked) showed an MIC (Ser. marcescens W-8) of 100 µg/mL (≈ 151 µM), an MIC (K. pneumoniae Y-50) of 0.78 µg/mL (≈ 1.18 µM) and an MIC [1] of 6.25 µg/mL (≈ 9.45 µM). It also gave an MIC (Ps. aeruginosa IFO-3445) of 12.5 µg/mL (≈ 18.9 µM), an MIC [2] of 25 µg/mL (≈ 37.8 µM) and an MIC (Ps. aeruginosa S-68) of 25 µg/mL (≈ 37.8 µM). For the same compound, the MIC (Ent. cloacae IID977) was 25 µg/mL (≈ 37.8 µM), the MIC [3] was 3.13 µg/mL (≈ 4.73 µM) and the MIC (Prot. vulgaris GN-76) was 3.13 µg/mL (≈ 4.73 µM). For the same compound, the MIC (E. coli NIHJ) was ≤ 0.1 µg/mL, the MIC (Citrobacter N-7) was 6.25 µg/mL (≈ 9.45 µM) and the MIC (Ser. marcescens IID620) was 0.78 µg/mL (≈ 1.18 µM). For the same compound, the MIC (Klebsiella spp. Y-72) was 12.5 µg/mL (≈ 18.9 µM) and the MIC (Ser. marcescens W-35) was 50 µg/mL (≈ 75.6 µM).

For `O=C(Cc1cccs1)N[C@@H]1C(=O)N2C(C(=O)[O-])=C(C[n+]3ccccc3)CS[C@H]12` [CER, Cephaloridin], the “Stability to β-lactamase, relative degree of hydrolysis” value [4] was 100, the “Stability to β-lactamase, relative degree of hydrolysis” value [5] was 18 and the “Stability to β-lactamase, relative degree of hydrolysis” value [6] was 115. For the same compound, the “Stability to β-lactamase, relative degree of hydrolysis” value [7] was 100 and the “Stability to β-lactamase, relative degree of hydrolysis” value [8] was 41.
